In PMC8766756, “Insights on Cancer Cell Inhibition, Subcellular Activities, and Kinase Profile of Phenylacetamides Pending 1H-Imidazol-5-One Variants” (Frontiers in Pharmacology, 2022):
Values joined by “and” are separate entries in the source; they are usually repeats but may differ in a detail not shown here. Equal values may be shown once.

Columns and labels:
Test in all cases: PamChip tyrosine kinase microarray
Assay type in all cases: biochemical
Conditions in all cases: 0.1 µM, HL60 lysate
DDR1 (Q08345) = target: T1, DDR1 (Q08345) (Homo sapiens, UniProt Q08345)
T1 construct: purchased PamGene (PamChip PTK array, Upstream Kinase Analysis)
T1 sequence (Q08345 19-913): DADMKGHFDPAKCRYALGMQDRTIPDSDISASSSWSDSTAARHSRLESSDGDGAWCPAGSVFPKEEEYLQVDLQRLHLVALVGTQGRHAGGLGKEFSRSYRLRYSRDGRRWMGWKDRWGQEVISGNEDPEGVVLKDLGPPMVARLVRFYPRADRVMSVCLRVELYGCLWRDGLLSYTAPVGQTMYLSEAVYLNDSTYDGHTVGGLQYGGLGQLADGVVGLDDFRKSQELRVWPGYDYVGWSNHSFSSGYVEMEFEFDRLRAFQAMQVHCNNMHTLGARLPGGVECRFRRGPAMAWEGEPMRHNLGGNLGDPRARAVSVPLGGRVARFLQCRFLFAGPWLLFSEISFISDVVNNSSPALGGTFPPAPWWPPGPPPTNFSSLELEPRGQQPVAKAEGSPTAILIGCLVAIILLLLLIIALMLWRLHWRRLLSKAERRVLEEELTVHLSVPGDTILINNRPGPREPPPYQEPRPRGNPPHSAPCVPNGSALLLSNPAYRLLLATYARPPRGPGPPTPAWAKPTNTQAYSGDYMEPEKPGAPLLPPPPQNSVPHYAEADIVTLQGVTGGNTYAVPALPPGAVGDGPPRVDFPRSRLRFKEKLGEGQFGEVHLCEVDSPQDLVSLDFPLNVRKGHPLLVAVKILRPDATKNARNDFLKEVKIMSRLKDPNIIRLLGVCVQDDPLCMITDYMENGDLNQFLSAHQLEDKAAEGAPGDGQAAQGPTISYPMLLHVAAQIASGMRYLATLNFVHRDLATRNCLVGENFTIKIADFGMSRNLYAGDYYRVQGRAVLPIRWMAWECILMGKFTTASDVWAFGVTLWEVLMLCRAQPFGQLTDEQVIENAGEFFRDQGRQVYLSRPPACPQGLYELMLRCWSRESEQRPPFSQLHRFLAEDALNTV
How it was run: (§1)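 HL60 (AML) cell lysate was spiked with compound at 0.001, 0.01, 0.1, 1, 10 and 50 µM, or 2% v/v DMSO as control, then profiled in technical replicates on a tyrosine kinase peptide array of 196 phosphosites. Kinase activity was inferred from peptide-set changes using an upstream kinase tool.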

TEC (P42680) = target: T2, TEC (P42680) (Homo sapiens, UniProt P42680)
T2 construct: purchased PamGene (PamChip PTK array, Upstream Kinase Analysis)
T2 sequence (P42680 1-631): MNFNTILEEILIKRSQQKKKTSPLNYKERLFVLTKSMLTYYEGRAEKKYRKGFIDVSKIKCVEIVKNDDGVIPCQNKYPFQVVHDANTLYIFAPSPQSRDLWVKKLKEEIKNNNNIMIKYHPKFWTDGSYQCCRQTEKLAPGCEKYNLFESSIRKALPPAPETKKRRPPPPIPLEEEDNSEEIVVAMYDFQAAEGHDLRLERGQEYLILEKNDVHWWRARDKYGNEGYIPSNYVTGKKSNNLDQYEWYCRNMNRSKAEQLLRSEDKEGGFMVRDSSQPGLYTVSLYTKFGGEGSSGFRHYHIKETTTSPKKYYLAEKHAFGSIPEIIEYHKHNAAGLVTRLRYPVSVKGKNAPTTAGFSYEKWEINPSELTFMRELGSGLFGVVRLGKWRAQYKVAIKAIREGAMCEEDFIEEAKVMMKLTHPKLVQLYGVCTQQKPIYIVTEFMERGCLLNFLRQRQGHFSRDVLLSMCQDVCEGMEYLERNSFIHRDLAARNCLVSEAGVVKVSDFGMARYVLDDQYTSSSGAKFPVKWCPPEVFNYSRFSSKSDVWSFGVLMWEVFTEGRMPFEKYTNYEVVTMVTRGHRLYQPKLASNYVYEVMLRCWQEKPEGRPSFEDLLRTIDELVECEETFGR
How it was run: as §1

Ron (Q04912) = target: T3, Ron (Q04912) (Homo sapiens, UniProt Q04912)
T3 construct: purchased PamGene (PamChip PTK array, Upstream Kinase Analysis)
T3 sequence (Q04912 25-1400): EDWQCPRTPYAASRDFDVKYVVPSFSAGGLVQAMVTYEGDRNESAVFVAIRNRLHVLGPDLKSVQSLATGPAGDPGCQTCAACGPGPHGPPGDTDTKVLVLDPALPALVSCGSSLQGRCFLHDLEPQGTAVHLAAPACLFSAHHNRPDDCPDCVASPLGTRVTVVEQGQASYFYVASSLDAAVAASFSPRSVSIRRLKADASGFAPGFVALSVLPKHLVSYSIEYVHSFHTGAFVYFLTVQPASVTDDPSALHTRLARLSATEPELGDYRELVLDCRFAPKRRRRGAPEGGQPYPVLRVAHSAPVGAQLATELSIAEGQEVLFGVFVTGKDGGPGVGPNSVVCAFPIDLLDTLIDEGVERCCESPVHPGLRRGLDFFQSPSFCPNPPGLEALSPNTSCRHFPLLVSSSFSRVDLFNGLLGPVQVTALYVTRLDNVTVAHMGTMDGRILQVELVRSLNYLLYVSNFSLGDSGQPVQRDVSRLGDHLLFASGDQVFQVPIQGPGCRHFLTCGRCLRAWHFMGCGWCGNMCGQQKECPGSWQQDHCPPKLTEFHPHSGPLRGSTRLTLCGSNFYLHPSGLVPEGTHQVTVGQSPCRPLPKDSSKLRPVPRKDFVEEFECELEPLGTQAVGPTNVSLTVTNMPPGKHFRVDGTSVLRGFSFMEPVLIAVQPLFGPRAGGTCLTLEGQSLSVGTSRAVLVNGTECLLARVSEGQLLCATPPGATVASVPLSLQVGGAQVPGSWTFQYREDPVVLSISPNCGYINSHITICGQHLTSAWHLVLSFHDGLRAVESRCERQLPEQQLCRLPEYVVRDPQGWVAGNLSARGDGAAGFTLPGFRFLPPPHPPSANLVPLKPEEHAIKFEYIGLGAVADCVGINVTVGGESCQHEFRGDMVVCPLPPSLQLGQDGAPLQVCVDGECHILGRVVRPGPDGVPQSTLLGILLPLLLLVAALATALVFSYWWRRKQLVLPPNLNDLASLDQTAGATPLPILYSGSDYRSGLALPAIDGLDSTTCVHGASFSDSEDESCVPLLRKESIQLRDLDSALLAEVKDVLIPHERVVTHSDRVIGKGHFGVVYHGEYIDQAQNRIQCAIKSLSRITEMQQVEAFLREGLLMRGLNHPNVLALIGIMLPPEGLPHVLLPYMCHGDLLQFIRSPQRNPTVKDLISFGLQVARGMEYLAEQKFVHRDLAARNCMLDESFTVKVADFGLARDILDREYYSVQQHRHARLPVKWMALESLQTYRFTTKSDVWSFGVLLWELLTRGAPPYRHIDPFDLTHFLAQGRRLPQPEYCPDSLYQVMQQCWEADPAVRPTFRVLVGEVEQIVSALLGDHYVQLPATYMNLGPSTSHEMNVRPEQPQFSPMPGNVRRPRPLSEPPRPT
How it was run: as §1

ZAP70 (P43403) = target: T4, ZAP70 (P43403) (Homo sapiens, UniProt P43403)
T4 construct: purchased PamGene (PamChip PTK array, Upstream Kinase Analysis)
T4 sequence (P43403 1-619): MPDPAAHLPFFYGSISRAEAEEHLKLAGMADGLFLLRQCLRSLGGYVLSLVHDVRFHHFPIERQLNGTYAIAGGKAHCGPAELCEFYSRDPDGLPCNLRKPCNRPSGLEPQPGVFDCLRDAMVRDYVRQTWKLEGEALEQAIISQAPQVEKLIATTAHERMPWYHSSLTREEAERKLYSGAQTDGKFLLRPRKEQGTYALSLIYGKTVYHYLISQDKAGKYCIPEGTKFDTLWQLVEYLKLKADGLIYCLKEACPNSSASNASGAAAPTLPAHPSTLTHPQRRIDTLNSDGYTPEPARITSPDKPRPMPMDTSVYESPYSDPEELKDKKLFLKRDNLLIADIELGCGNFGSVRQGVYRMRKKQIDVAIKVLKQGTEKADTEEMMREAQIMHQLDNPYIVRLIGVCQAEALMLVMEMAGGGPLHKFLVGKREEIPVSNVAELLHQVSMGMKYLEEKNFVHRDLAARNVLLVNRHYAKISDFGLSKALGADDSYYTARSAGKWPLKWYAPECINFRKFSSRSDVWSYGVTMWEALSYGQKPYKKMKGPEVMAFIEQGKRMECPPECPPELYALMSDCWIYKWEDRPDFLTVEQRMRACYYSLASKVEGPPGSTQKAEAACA
How it was run: as §1

Fer (P16591) = target: T5, Fer (P16591) (Homo sapiens, UniProt P16591)
T5 construct: purchased PamGene (PamChip PTK array, Upstream Kinase Analysis)
T5 sequence (P16591 whole entry): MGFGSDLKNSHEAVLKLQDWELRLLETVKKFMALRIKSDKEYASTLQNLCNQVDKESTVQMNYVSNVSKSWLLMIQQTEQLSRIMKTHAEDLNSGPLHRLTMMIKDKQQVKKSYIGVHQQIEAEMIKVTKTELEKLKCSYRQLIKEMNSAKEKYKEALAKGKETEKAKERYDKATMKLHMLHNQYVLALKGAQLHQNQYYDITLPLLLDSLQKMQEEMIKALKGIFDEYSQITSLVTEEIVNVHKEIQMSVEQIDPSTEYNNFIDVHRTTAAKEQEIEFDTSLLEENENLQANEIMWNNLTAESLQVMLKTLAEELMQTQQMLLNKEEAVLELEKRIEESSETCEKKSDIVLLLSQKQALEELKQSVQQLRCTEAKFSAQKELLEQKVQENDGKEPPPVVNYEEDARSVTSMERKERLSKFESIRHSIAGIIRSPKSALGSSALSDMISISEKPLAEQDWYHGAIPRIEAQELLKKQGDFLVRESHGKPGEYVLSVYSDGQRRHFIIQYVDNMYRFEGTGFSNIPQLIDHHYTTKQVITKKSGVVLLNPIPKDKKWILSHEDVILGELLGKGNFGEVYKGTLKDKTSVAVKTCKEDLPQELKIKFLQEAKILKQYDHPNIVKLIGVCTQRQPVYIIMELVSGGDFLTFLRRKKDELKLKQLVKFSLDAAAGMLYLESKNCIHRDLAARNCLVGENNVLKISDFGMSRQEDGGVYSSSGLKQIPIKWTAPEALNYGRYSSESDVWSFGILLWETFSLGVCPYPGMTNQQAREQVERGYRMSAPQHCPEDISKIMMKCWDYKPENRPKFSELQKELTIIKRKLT
How it was run: as §1

**Q.** For `COc1ccc(/C=C2\N=C(C)N(c3ccc(CC(=O)NCc4ccccc4)cc3)C2=O)cc1` [Compound 4c, (Z)-N-Benzyl-2-(4-(4-(4-methoxybenzylidene)-2-methyl-5-oxo-4,5-dihydro-1H-imidazol-1-yl)phenyl)acetamide], which “Mean Final score (Kinase score)” value (DDR1 (Q08345)) is on record?
**A.** The value was 2.262.

**Q.** What about the “Mean Kinase Statistic” value (DDR1 (Q08345)) of the same molecule?
**A.** Its value is -1.216.

**Q.** And the “Mean Significance Score” value (DDR1 (Q08345))?
**A.** Its value is 1.955.

**Q.** And the “Mean Specificity Score” value (DDR1 (Q08345))?
**A.** Its value is 0.3662.

**Q.** What about the “Mean Final score (Kinase score)” value (TEC (P42680)) of the same molecule?
**A.** The value was 2.197.

**Q.** What about the “Mean Kinase Statistic” value (TEC (P42680)) of the same molecule?
**A.** The value was -1.125.

**Q.** What about the “Mean Significance Score” value (TEC (P42680)) of the same molecule?
**A.** Its value is 2.048.

**Q.** What about the “Mean Specificity Score” value (TEC (P42680)) of the same molecule?
**A.** Its value is 0.171.

**Q.** What about the “Mean Significance Score” value (Ron (Q04912)) of the same molecule?
**A.** Its value is 2.048.

**Q.** And the “Mean Specificity Score” value (Ron (Q04912))?
**A.** Its value is 0.9095.

**Q.** What about the “Mean Final score (Kinase score)” value (Ron (Q04912); listed as KIM-161) of the same molecule?
**A.** The value was 2.96 and 2.957.

**Q.** What about the “Mean Final score (Kinase score)” value (ZAP70 (P43403)) of the same molecule?
**A.** The value was 1.771.

**Q.** What about the “Mean Kinase Statistic” value (ZAP70 (P43403)) of the same molecule?
**A.** The value was -1.015.

**Q.** And the “Mean Significance Score” value (ZAP70 (P43403))?
**A.** The value was 1.836.

**Q.** And the “Mean Specificity Score” value (ZAP70 (P43403))?
**A.** The value was 0.009048.

**Q.** What about the “Mean Final score (Kinase score)” value (Fer (P16591)) of the same molecule?
**A.** The value was 2.491.

**Q.** What about the “Mean Kinase Statistic” value (Fer (P16591)) of the same molecule?
**A.** Its value is -1.259.

**Q.** What about the “Mean Significance Score” value (Fer (P16591)) of the same molecule?
**A.** Its value is 2.048.

**Q.** And the “Mean Specificity Score” value (Fer (P16591))?
**A.** The value was 0.455.
